From ChEMBL document CHEMBL4831552, “Novel Substituted Piperazine Amide Compounds as Indoleamine-2,3-dioxygenase (IDO) Inhibitors” (ACS Med Chem Lett, 2021)

Molecular target: Indoleamine 2,3-dioxygenase 1 (Homo sapiens, UniProt P14902)
Experiment: Inhibition of IDO1 in IFN-gamma stimulated human HeLa cells incubated for 48 hrs by fluorescence microplate reader assay

Indoleamine 2,3-dioxygenase 1, sequence (P14902 whole entry): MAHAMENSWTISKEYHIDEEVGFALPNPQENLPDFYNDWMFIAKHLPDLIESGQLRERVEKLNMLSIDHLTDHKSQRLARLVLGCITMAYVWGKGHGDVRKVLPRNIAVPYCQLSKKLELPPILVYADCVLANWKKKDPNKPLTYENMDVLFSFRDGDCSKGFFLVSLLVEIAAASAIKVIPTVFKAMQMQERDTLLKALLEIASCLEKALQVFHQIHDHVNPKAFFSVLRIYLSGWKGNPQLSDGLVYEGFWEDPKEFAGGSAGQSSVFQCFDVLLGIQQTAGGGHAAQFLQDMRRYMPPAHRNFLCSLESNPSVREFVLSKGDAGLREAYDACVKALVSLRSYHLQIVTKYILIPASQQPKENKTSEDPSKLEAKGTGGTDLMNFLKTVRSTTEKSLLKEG

Structure (SMILES)	IC50
CC(=O)NC1CCN(C(=O)c2nn(CC(=O)N3CCN(c4cccc(C)c4Cl)CC3)c3c2C2CCCCC2C3)CC1 (configuration not stated)	0.59 nM
Cc1cccc(N2CCN(C(=O)Cn3nc(C(=O)N4CCC5(CO)CC4C5)c4c3C[C@H]3C[C@@H]43)CC2)c1C	< 0.51 nM
